Measured values from US20090325959A1 (priority 2008, published 2009).
Read-outs that look alike come from different tables or passages of the source.

What was measured:
[1] = biological target: T1, ROCK1 (Homo sapiens, UniProt Q13464); assay: Rho kinase inhibition assay (IMAP fluorescence polarization), ROCK1; assay type: biochemical;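 note: kinase reaction run 60 min at room temperature, then phosphorylated substrate captured on IMAP beads for 30 min, with fluorescence polarization read in mP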
T1 construct: purchased Upstate/Chemicon 14-601
Protocol: (§1) Following the pre-incubation, 10 μM ATP was added to initiate the reaction. After 60 minutes at room temperature, Molecular Devices IMAP™ binding solution was added to bind phosphorylated substrate. After 30 minutes of incubation in the presence of the IMAP™ beads, the fluorescence polarization was read and the ratio was reported as mP. IC50 values for compounds and EC50 values for ATP were calculated using the Prism software from Graphpad.

[2] = biological target: T2, ROCK2 (Homo sapiens, UniProt O75116); assay: Rho kinase inhibition assay (IMAP fluorescence polarization), ROCK2; assay type: biochemical;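 note: kinase reaction started with 10 µM ATP and run 60 min at room temperature, then phosphorylated substrate captured on IMAP beads for 30 min and fluorescence polarization read in mP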
T2 construct: purchased Upstate/Chemicon 14-451
Protocol: as §1

[3] = 10 μM ATP, read-out: ROCK2 Ki, Avg

T1 sequence (Q13464 17-535 limits assumed): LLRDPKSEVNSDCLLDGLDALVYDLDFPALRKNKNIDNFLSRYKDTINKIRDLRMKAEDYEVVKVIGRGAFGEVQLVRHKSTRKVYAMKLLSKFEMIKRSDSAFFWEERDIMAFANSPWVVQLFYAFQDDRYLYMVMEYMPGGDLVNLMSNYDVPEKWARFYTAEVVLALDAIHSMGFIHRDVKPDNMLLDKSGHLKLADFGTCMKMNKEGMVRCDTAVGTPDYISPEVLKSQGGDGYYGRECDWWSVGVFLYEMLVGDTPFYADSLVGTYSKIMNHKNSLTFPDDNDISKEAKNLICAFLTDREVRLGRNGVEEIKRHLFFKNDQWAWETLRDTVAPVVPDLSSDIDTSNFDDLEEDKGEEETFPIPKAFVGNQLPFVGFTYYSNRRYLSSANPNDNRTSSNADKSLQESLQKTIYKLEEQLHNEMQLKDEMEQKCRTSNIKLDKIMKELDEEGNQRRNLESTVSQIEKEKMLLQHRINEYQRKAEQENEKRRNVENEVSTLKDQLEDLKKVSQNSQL
T2 sequence (O75116 11-552 limits assumed): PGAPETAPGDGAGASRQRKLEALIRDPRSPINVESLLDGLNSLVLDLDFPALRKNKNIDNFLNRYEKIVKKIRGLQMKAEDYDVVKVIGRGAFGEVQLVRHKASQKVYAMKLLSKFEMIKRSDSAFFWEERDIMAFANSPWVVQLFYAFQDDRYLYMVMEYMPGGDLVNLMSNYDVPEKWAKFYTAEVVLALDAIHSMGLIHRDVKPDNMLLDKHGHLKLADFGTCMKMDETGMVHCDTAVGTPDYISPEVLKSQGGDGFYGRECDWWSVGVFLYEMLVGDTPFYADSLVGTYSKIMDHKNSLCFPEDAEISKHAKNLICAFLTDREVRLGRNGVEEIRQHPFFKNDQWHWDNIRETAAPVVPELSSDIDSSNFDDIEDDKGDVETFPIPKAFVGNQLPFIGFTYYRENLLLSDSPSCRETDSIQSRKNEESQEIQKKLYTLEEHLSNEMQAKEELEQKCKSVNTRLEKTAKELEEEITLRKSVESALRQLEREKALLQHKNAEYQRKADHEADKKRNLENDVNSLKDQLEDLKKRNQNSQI

Row | Structure (SMILES) | Ki ([1]; Avg, 10 μM ATP) [nM] | Ki [2, 3] [nM] | Ki ([1]; average Ki) [nM] | Ki ([2]; average Ki, read-out: ROCK2 Ki) [nM]
1 | CS(=O)(=O)c1cccc(CN2CCC[C@@H](Nc3ccc4[nH]ncc4c3)C2)c1 [Compound 1.160, (R)-N-(1-(3-(methylsulfonyl)benzyl)piperidin-3-yl)-1H-indazol-5-amine] | 218 | 49.4 |  | 
2 | Cc1ccc(CN2CCC[C@H](Nc3ccc4[nH]ncc4c3)C2)cc1OCC(=O)O [Compound 1.240] | 625 | 60.1 |  | 
3 | OC[C@@H](O)COc1cccc(CN2CCC[C@@H](Nc3ccc4[nH]ncc4c3)C2)c1 [Compound 1.115, (R)-3-(3-(((R)-3-(1H-indazol-5-ylamino)piperidin-1-yl)methyl)phenoxy)propane-1,2-diol] | 89.7 | 20.6 |  | 
4 | CC1(C)OC[C@H](COc2cccc(CN3CCC[C@@H](Nc4ccc5[nH]ncc5c4)C3)c2)O1 [Compound 1.222, N-((R)-1-(3-(((S)-2,2-dimethyl-1,3-dioxolan-4-yl)methoxy)benzyl)piperidin-3-yl)-1H-indazol-5-amine] | 229 | 75.5 |  | 
5 | FC(F)(F)c1cccc(CN2CCC[C@H](Nc3ccc4[nH]ncc4c3)C2)c1 [Compound 1.169, (S)-N-(1-(3-(trifluoromethyl)benzyl)piperidin-3-yl)-1H-indazol-5-amine] | 256 | 33.8 |  | 
6 | c1cc(N[C@@H]2CCN(Cc3ccsc3)C2)c2ccncc2c1 [Compound 2.088, (R)-N-(1-(thiophen-3-ylmethyl)pyrrolidin-3-yl)isoquinolin-5-amine] | 38.7 | 13.6 |  | 
7 | COc1c(CN2CC[C@@H](Nc3cccc4cnccc34)C2)cccc1NS(C)(=O)=O [Compound 2.096, (R)-N-(3-((3-(isoquinolin-5-ylamino)pyrrolidin-1-yl)methyl)-2-methoxyphenyl)methanesuifonamide] | 70.2 | 9.6 | 70.2 | 9.6
8 | c1cc(N[C@@H]2CCN(Cc3ccncn3)C2)c2ccncc2c1 [Compound 2.083, (R)-N-(1-(pyrimidin-4-ylmethyl)pyrrolidin-3-yl)isoquinolin-5-amine] | 1880 | 858 |  | 
9 | CS(=O)(=O)N1CCCc2cc(CN3CCC[C@H](Nc4ccc5[nH]ncc5c4)C3)ccc21 [Compound 1.272, (S)-N-(1-((1-(methylsulfonyl)-1,2,3,4-tetrahydroquinolin-6-yl)methyl)piperidin-3-yl)-1H-indazol-5-amine] | 1820 | 194 |  | 
10 | CSc1ccc(CN2CCC[C@H](Nc3cccc4cnccc34)C2)cc1 [Compound 2.051, (S)-N-(1-(4-(methylthio)benzyl)piperidin-3-yl)isoquinolin-5-amine] | 1440 | 1180 |  | 
11 | Cc1cccc(CN2CCC[C@@H](Nc3ccc4[nH]ncc4c3)C2)c1C [Compound 1.172, (R)-N-(1-(2,3-dimethylbenzyl)piperidin-3-yl)-1H-indazol-5-amine] | 103 | 20.5 |  | 
12 | O=C(Nc1cccc(CN2CCC[C@@H](Nc3ccc4[nH]ncc4c3)C2)c1)N1CCCC1 [Compound 1.266, (R)-N-(3-((3-(1H-indazol-5-ylamino)piperidin-1-yl)methyl)phenyl)pyrrolidine-1-carboxamide] | 53.8 | 17.1 |  | 
13 | NCc1cccc(CN2CCC[C@H](Nc3ccc4[nH]ncc4c3)C2)c1 [Compound 1.184, (S)-N-(1-(3-(aminomethyl)benzyl)piperidin-3-yl)-1H-indazol-5-amine] | 843 | 90.9 |  | 
14 | Fc1ccc(CN2CC[C@@H](Nc3cccc4cnccc34)C2)cc1F [Compound 2.062, (R)-N-(1-(3,4-difluorobenzyl)pyrrolidin-3-yl)isoquinolin-5-amine] | 63.4 | 30.5 |  | 
15 | COc1ccc(CN2CC[C@@H](Nc3ccc4[nH]ncc4c3)C2)cc1 [Compound 1.245, (R)-N-(1-(4-methoxybenzyl)pyrrolidin-3-yl)-1H-indazol-5-amine] | 199 | 49.5 |  | 
16 | c1cc(N[C@@H]2CCN(Cc3ccc4c(c3)OCCO4)C2)c2ccncc2c1 [Compound 2.056, (R)-N-(1-((2,3-dihydrobenzo[b][1,4]dioxin-6-yl)methyl)pyrrolidin-3-yl)isoquinolin-5-amine] | 107 | 48.7 |  | 
17 | O=[N+]([O-])c1cc(CN2CC[C@@H](Nc3cccc4cnccc34)C2)cs1 [Compound 2.089, (R)-N-(1-((5-nitrothiophen-3-yl)methyl)pyrrolidin-3-yl)isoquinolin-5-amine] | 102 | 32.9 |  | 
18 | OCC1COc2ccc(CN3CCC[C@@H](Nc4ccc5[nH]ncc5c4)C3)cc2O1 (stereo partly drawn) [Compound 1.264, (7-(((R)-3-(1H-indazol-5-ylamino)piperidin-1-yl)methyl)-2,3-dihydrobenzo[b][1,4]dioxin-2-yl)methanol] | 494 | 59.4 |  | 

Row | Structure (SMILES) | Ki ([1]; Avg, 10 μM ATP) [nM] | Ki [2, 3] [nM] | Ki ([1]; average Ki) [nM] | Ki ([2]; average Ki, read-out: ROCK2 Ki) [nM]
19 | COc1c(CN2CCC[C@H](Nc3ccc4[nH]ncc4c3)C2)cccc1NS(C)(=O)=O [Compound 1.280, (S)-N-(3-((3-(1H-indazol-5-ylamino)piperidin-1-yl)methyl)-2-methoxyphenyl)methanesulfonamide] | 746 | 38 |  | 
20 | CS(=O)(=O)N1CCCc2cc(CN3CC[C@@H](Nc4cccc5cnccc45)C3)ccc21 [Compound 2.070, (R)-N-(1-((1-(methylsulfonyl)-1,2,3,4-tetrahydroquinolin-6-yl)methyl)pyrrolidin-3-yl)isoquinolin-5-amine] | 286 | 48.4 |  | 
21 | OC[C@@H](O)COc1cccc(CN2CCC[C@H](Nc3ccc4[nH]ncc4c3)C2)c1 [Compound 1.117, (R)-3-(3-(((S)-3-(1H-indazol-5-ylamino)piperidin-1-yl)methyl)phenoxy)propane-1,2-diol] | 208 | 35.8 |  | 
22 | NC(=O)COc1cccc(CN2CC[C@@H](Nc3cccc4cnccc34)C2)c1 [Compound 2.040, (R)-2-(3-((3-(isoquinolin-5-ylamino)pyrrolidin-1-yl)methyl)phenoxy)acetamide] | 59.6 | 25.4 |  | 
23 | OCCn1cc(CN2CCC[C@@H](Nc3ccc4[nH]ncc4c3)C2)c2ccccc21 [Compound 1.273, (R)-2-(3-((3-(1H-indazol-5-ylamino)piperidin-1-yl)methyl)-1H-indol-1-yl)ethanol] | 31.3 | 8.2 | 31.3 | 8.2
24 | CS(=O)(=O)Cc1cccc(CN2CCC[C@@H](Nc3ccc4[nH]ncc4c3)C2)c1 [Compound 1.139, (R)-N-(1-(3-(methylsuifonylmethyl)benzyl)piperidin-3-yl)-1H-indazol-5-amine] | 200 | 23.2 |  | 
25 | FC(F)(F)c1cccc(CN2CC[C@@H](Nc3ccc4[nH]ncc4c3)C2)c1 [Compound 1.243, (R)-N-(1-(3-(trifluoromethyl)benzyl)pyrrolidin-3-yl)-1H-indazol-5-amine] | 219 | 84.3 |  | 
26 | CC(=O)NCc1cccc(CN2CCC[C@@H](Nc3ccc4[nH]ncc4c3)C2)c1 [Compound 1.194] | 176 | 20.2 |  | 
27 | C[C@@H](O)COc1cccc(CN2CCC[C@H](Nc3ccc4[nH]ncc4c3)C2)c1 [Compound 1.118, (R)-1-(3-(((S)-3-(1H-indazol-5-ylamino)piperidin-1-yl)methyl)phenoxy)propan-2-ol] | 462 | 81.7 |  | 
28 | CC(C)(C)OC(=O)NCc1ccc(CN2CCC[C@H](Nc3ccc4[nH]ncc4c3)C2)cc1 [Compound 1.199, (S)-tert-butyl 4-((3-(1H-indazol-5-ylamino)piperidin-1-yl)methyl)benzylcarbamate] | 1860 | 213 |  | 
29 | OCCn1ccc2cc(CN3CCC[C@H](Nc4ccc5[nH]ncc5c4)C3)ccc21 [Compound 1.269, (S)-2-(5-((3-(1H-indazol-5-ylamino)piperidin-1-yl)methyl)-1H-indol-1-yl)ethanol] | 239 | 22.8 |  | 
30 | O=S(=O)(Nc1cccc(CN2CC[C@@H](Nc3cccc4cnccc34)C2)c1)N1CCCCC1 [Compound 2.069, (R)-N-(3-((3-(isoquinolin-5-ylamino)pyrrolidin-1-yl)methyl)phenyl)piperidine-1-sulfonamide] | 16.7 | 2.4 | 16.7 | 2.4
31 | COc1ccc(CN2CCC[C@H](Nc3cccc4cnccc34)C2)cc1 [Compound 2.053, (S)-N-(1-(4-methoxybenzyl)piperidin-3-yl)isoquinolin-5-amine] | 952 | 182 |  | 
32 | Cc1c(CN2CC[C@@H](Nc3cccc4cnccc34)C2)cccc1NS(C)(=O)=O [Compound 2.078, (R)-N-(3-((3-(isoquinolin-5-ylamino)pyrrolidin-1-yl)methyl)-2-methylphenyl)methanesulfonamide] | 18.3 | 2.6 | 18.3 | 2.6
33 | c1cc(CN2CCC[C@@H](Nc3ccc4[nH]ncc4c3)C2)cc(C2CC2)c1 [Compound 1.202, (R)-N-(1-(3-cyclopropylbenzyl)piperidin-3-yl)-1H-indazol-5-amine] | 203 | 33 |  | 
34 | OCCOc1cccc(CN2CCC(Nc3ccc4[nH]ncc4c3)CC2)c1 [Compound 1.130, 2-(3-((4-(1H-indazol-5-ylamino)piperidin-1-yl)methyl)phenoxy)ethanol] | 577 | 142 |  | 
35 | C[C@@H](O)COc1cccc(CN2CCC[C@@H](Nc3ccc4[nH]ncc4c3)C2)c1 [Compound 1.116, (R)-1-(3-(((R)-3-(1H-indazol-5-ylamino)piperidin-1-yl)methyl)phenoxy)propan-2-ol] | 258 | 48.9 |  | 
